Legend:
[1] = tested on: C. albicans; assay: Inhibition of RIND IX reduction by C. albicans (yeast) in solution (Example 1, Table II); type: cell-based, Candida albicans (ATCC 14053); details: Method 2 (antibiotic preincubated with cells 37° C., 30 min), 635 nm
Method: The following materials were used in this example: stock solutions of RIND IX compound dispersion prepared as described above, glucose (10% in water), trimethyl-1,4-benzoquinone ETA (1.5 mg/ml methanol), and the antibiotics (25 mg/ml in dimethyl sulfoxide, except that filipin was 12.5 mg/ml of solvent). Bacteria and yeast were grown as described above. The approximate final cell concentrations in the assay mixture were 4.2×10^8 cells/ml of E. coli, 7.1×10^8 cells/ml of S. aureus, and 7×10^5 of C. albicans.
Test solutions were prepared by adding in order: 1.2 ml of HEPES buffer, 50 μl glucose solution, 1.5 ml of RIND IX dispersion, 100 μl of antibiotic solution, 100 μl of cell suspension and 25 μl of ETA solution. Cell control solutions contained all reagents except antibiotics. Background controls consisted of both buffer and solution controls. The buffer control contained all reagents except antibiotics and cells. The solution control contained all reagents except cells. Optical density readings (OD) were measured at 635 nm at 0 minutes and after incubation at 37° C. for 30 minutes for test and Control solutions, and the change in density (ΔOD) was determined. […] The corrected percent inhibition is calculated by dividing the difference between the ΔOD obtained from the Control without antibiotic and the ΔOD of the test solution, by ΔOD of the Control without antibiotic. All readings were corrected by subtracting readings of the appropriate background control.
Solutions containing 2.9 ml HEPES, 50 μl of the antibiotic solution, and 100 μl cell solution were incubated at 37° C. for 30 minutes, centrifuged for 10 minutes and decanted. The resulting pellet was then treated with 1.4 ml HEPES, 50 μl glucose solution, 1.5 ml RIND IX dispersion and 25 μl ETA solution, mixed well and the optical densities recorded as described above in Method 1. The corrected percent inhibition data was calculated as described in Method 1 above.

[2] = tested on: S. aureus; assay: Inhibition of RIND XXXV reduction by S. aureus, microtitration plate, fluorescence (Example 2, Table III); type: cell-based, Staphylococcus aureus (ATCC 25923); details: Staphylococcus aureus, 0.5 h, S. aureus (gram +), 37° C., 30 min, read-out: Corrected Percent Inhibition
Method: (§1) gram-negative microorganism Escherichia coli (ATCC 25922), gram-positive microorganism Staphylococcus aureus (ATCC 25923), and Candida albicans yeast cells (ATCC 14053), brain heart infusion broth (BHI) and Sabaroud's dextrose broth (SAB) from Difco Laboratories (Detroit, Michigan, U.S.A.), and Aspergillus flavus (ATCC 20047), a mold from American Type Culture Collection (Rockville, Maryland, U.S.A.).
(§2) E. coli and S. aureus were grown overnight in BHI broth at 37° C. C. albicans and A. flavus were grown overnight at 25° C. in SAB broth with agitation. The cells were harvested by centrifugation, washed and resuspended in 0.05 molar N-2-hydroxyethylpiperazine-N'-2-ethanesulfonic acid (HEPES) buffer (pH 7.8).
(§3) Dispersions containing RIND compounds were prepared by dissolving, for example, RIND VII from Table I above in N,N-dimethylformamide (DMF) at 16 mg compound per ml of solvent. An aliquot (250 μl) of the resulting solution was added to 500 μl of TRITON X-100 surfactant. This mixture was then added dropwise with stirring to 25 ml of 0.05 molar HEPES buffer. A solution containing a water-compatible RIND compound (for example, RIND XXXV) was prepared by dissolving the compound in N,N-dimethylformamide which had been acidified with 0.1% sulfuric acid (16 mg RIND compound per ml of solvent).
(§4) A composition was prepared from the following components: 100 μl RIND XXXV solution (16 mg RIND compound per ml of acidified N,N-dimethylformamide), 200 μl glucose solution (10% in water), 200 μl trimethyl-1,4-benzoquinone ETA solution (1.5 mg/ml methanol) and 10 ml HEPES buffer.
(§5) Test solutions were prepared using the following reagents: 50 μl HEPES buffer, 50 μl filipin polyene antibiotic (12.5 mg/ml dimethylsulfoxide)(serial dilutions of buffer and antibiotic solutions were performed to obtain various antibiotic concentrations), 50 μl of the appropriate cell suspensions, that is, E. coli (about 10^8 cells/ml), S. aureus (about 10^8 cells/ml), C. albicans (about 10^7 cells/ml) and A. flavus, and […] of the RIND composition described above.
(§6) Control solutions were prepared as described in Example 1. Relative fluorescence was measured using a Dynatech MICROFLUOR Reader (Dynatech Laboratories, Alexandria, Virginia) modified to read at excitation 540 nm and emission 620 nm, at zero time and after incubation at 37° C. for 30 minutes. The change in relative fluorescence was then determined as the difference of the two values.

[3] = tested on: C. albicans; assay: Inhibition of RIND XXXV reduction by C. albicans, microtitration plate, fluorescence (Example 2, Table III); type: cell-based, Candida albicans (ATCC 14053); details: Candida albicans, 0.5 h, C. albicans (yeast), 37° C., 30 min, read-out: Corrected Percent Inhibition
Method: as §1, §2, §3, §4, §5, §6

[4] = tested on: S. aureus; assay: Inhibition of MTT tetrazolium salt reduction by S. aureus, microtitration plate (Example 3, Table IV); type: cell-based, Staphylococcus aureus (ATCC 25923); details: Staphylococcus aureus, 0.5 h, S. aureus (gram +), 540 nm, 37° C., 30 min, read-out: Corrected Percent Inhibition
Method: as §1, §2
(§7) The differentiations of yeast and mold from bacteria were carried out in microtitration plates. The cell suspensions used were like those described in Example 2. The reducible compound used was 3-(4,5-dimethyl-2-thiazolyl)-2,5-diphenyl-2H-tetrazolium bromide (MTT). A composition containing MTT was prepared with the following components: 200 μl MTT solution (5 mg/ml methanol), 200 μl glucose solution (10% glucose in water), 200 μl trimethyl-1,4-benzoquinone ETA and 12 ml of HEPES buffer (0.05 molar, pH 7.8).
as §5, with “components:” for “reagents:”, “suspension, i.e.” for “suspensions, that is,”, “MTT” for “RIND”, “noted” for “described”, “above. Cell Controls contained all reagents except the antibiotic. Background was measured with buffer. Solution Controls contained all reagents except cells.” for “above.”
(§8) Optical density measurements were made at 540 nm using a commercially available spectrophotometer, and the change in optical density (ΔOD) was determined after 30 minutes at 37° C. […] It is apparent that the concentration effective for differentiation of yeast is different than for mold. However, it is well within the skill of a worker in the art to determine the appropriate concentration for a given test.

[5] = tested on: A. flavus; assay: Inhibition of MTT tetrazolium salt reduction by A. flavus (mold), microtitration plate (Example 3, Table IV); type: cell-based, Aspergillus flavus (ATCC 20047); details: Aspergillus flavus, 0.5 h, 540 nm, 37° C., 30 min, read-out: Corrected Percent Inhibition
Method: as §1, §2, §7
as §5, with “components:” for “reagents:”, “suspension, i.e.” for “suspensions, that is,”, “MTT” for “RIND”, “noted” for “described”, “above. Cell Controls contained all reagents except the antibiotic. Background was measured with buffer. Solution Controls contained all reagents except cells.” for “above.”
as §8

[6] = tested on: C. albicans; assay: Inhibition of RIND XXXV reduction by C. albicans, dry analytical element (Example 4, Table V); type: cell-based, Candida albicans (ATCC 14053); details: C. albicans (yeast), 37° C., 30 min
Method: as §1, §2
Dispersions containing RIND compounds were prepared by dissolving, for example, RIND VII from Table I above in N,N-dimethylformamide (DMF) at 16 mg compound per ml of solvent. An aliquot (250 μl) of the resulting solution was added to 500 μl of TRITON X-100 surfactant. […]
A standard paper punch was used to cut circular elements (about 0.6 cm in diameter) from the dried strips. […] Buffer solution was applied to separate elements for background readings.
Relative fluorescence (excitation at 540 nm and emission at 620 nm) was measured using a Dynatech MICROFLUOR reader at zero time and after 30 minutes incubation at 37° C., and the change in relative fluorescence was determined.

Question: What does the source list for CCCCC[C@@H](O)[C@H]1C(=O)O[C@H](C)[C@@H](O)/C=C/C=C/C=C/C=C/C=C(\C)[C@@H](O)C[C@H](O)C[C@H](O)C[C@H](O)C[C@H](O)C[C@H](O)C[C@@H]1O [Filipin, filipin]?
Answer: Corrected % Inhibition [1]: 97.5%; inhibition at 260 µg/mL ([2]; 0.26 mg/ml): 7.5%; inhibition at 520 µg/mL ([2]; 0.52 mg/ml): 8.6%; inhibition at 1040 µg/mL ([2]; 1.04 mg/ml): 14.8%; inhibition at 2080 µg/mL ([2]; 2.08 mg/ml): 18.2%; inhibition at 260 µg/mL ([3]; 0.26 mg/ml): 56.8%; inhibition at 520 µg/mL ([3]; 0.52 mg/ml): 71%; inhibition at 1040 µg/mL ([3]; 1.04 mg/ml): 80.7%; inhibition at 2080 µg/mL ([3]; 2.08 mg/ml): 86.8%; inhibition at 260 µg/mL ([4]; 0.26 mg/ml): 0%; inhibition at 520 µg/mL ([4]; 0.52 mg/ml): 0%; inhibition at 1040 µg/mL ([4]; 1.04 mg/ml): 0%; inhibition at 2080 µg/mL ([4]; 2.08 mg/ml): 0%; inhibition at 260 µg/mL ([5]; 0.26 mg/ml): 0%; inhibition at 520 µg/mL ([5]; 0.52 mg/ml): 10.3%; inhibition at 1040 µg/mL ([5]; 1.04 mg/ml): 19%; inhibition at 2080 µg/mL ([5]; 2.08 mg/ml): 98.3%; Corrected Percent Inhibition [6]: 76%

Reference: patent US4888287A, “Rapid differentiation of fungi from bacteria using polyene antibiotics” (Eastman Kodak Company, priority 1986, dated 1989)
